The values below are quoted from earlier work in paper PMC6247902 (Cancer immunology research, 2018).

This data set has as its system serum albumin. The following applies: read-out: affinity for serum albumin, KD.

A word on the Kd: it is the concentration at which binding is half-saturated. In the case of `Cc1c(C)c2c(c(C)c1O)CC[C@@](C)(CCC[C@H](C)CCC[C@H](C)CCCC(C)C)O2` [α-tocopherol], the Kd was about 7 µM.
